Assay results from ChEMBL document CHEMBL4138122, “Azaphenothiazines - promising phenothiazine derivatives. An insight into nomenclature, synthesis, structure elucidation and biological properties” (Eur J Med Chem, 2017).
Converted amounts (≈) assume the structure as drawn.

Species on record: Mus musculus
Assay: Antioxidant activity in Swiss albino mouse assessed as LPO level per mg tissue
Type: functional
Conditions: not given

| SMILES | Activity [nM] |
| --- | --- |
| COc1cccc2c3c(c4nc5ccccc5c(=O)n4c12)Sc1cc(C)ccc1N3 | 4.5 to 4.6 |
| COc1ccc2c(c1)c1c(c3nc4ccccc4c(=O)n32)Sc2cccc(OC)c2N1 | 4.5 to 4.6 |
| COc1cccc2c1Nc1c(c3nc4ccccc4c(=O)n3c3c(OC)cccc13)S2 | 4.5 to 4.6 |

System: Rattus norvegicus
Assay: Anti-asthmatic activity in rat assessed as inhibition of egg albumin-induced duration of symptoms of dyspnoea at 3 mg/kg, po administered 90 mins prior to dyspnoea induction
Type: functional
Conditions: not given

| SMILES | inhibition in vivo at 3 mg/kg [%] |
| --- | --- |
| COc1ccc2c(c1)[S+]([O-])c1nccnc1N2C (configuration not stated) | 12.5 |

System: Staphylococcus aureus
Assay: Antibacterial activity against Staphylococcus aureus
Type: functional
Conditions: Staphylococcus aureus; read-out: MIC

| SMILES | MIC [µg/mL] |
| --- | --- |
| Nc1nc(O)c2c(n1)N=c1c(c3c(c4ccccc14)=Nc1ccccc1S3)S2 | 79.4 (≈ 198 µM) |
| C[n+]1cc2c(c3ccccc31)Nc1ccc(Br)cc1S2.[Cl-] | 26 |

Biological target: Cholinesterase (Equus caballus) (UniProt P81908)
Assay: Inhibition of horse serum BChE at 10 uM
Conditions: not given

Chain of Cholinesterase (Equus caballus) (P81908 whole entry): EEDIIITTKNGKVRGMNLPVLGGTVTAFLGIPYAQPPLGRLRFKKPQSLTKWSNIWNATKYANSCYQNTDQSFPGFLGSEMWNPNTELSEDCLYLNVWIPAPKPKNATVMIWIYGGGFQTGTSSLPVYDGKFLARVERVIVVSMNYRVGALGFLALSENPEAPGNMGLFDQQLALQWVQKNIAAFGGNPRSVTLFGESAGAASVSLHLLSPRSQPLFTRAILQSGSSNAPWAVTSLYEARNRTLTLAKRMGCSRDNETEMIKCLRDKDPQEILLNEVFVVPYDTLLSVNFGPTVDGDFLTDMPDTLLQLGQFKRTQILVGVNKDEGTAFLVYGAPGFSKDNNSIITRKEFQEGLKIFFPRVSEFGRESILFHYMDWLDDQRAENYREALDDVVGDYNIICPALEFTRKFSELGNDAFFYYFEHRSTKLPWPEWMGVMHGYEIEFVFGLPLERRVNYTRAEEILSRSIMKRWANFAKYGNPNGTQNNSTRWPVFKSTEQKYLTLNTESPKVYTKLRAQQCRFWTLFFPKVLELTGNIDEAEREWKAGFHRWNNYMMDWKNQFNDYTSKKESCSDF

| SMILES | inhibition [%] |
| --- | --- |
| CN1CCCCC1CCN1c2nc3ccccc3cc2Sc2cc3ccccc3nc21 (configuration not stated) | 99.8 |
| CSc1ccc2c(c1)Sc1cc3ccccc3nc1N2CCC1CCCCN1C (configuration not stated) | 99.9 |
| O=C(NCCCl)NCCCN1c2nc3ccccc3cc2Sc2cc3ccccc3nc21 | 83.2 |
| O=C(NCCCl)NCCCN1c2ccc(Cl)cc2Sc2cc3ccccc3nc21 | 80 |
| CN1CCCCC1CCN1c2ccc(Cl)cc2Sc2cc3ccccc3nc21 (configuration not stated) | 99.9 |

System: Escherichia coli
Assay: Antibacterial activity against Escherichia coli
Type: functional
Conditions: Escherichia coli

| SMILES | MIC [µg/mL] |
| --- | --- |
| C[n+]1cc2c(c3ccccc31)Nc1ccccc1S2.[Cl-] | 7 |
| Oc1ncnc2c1N=c1c(c3c(c4ccccc14)=Nc1ccccc1S3)O2 | 87.1 to 97.1 (≈ 235 to 262 µM) |
| C[n+]1cc2c(c3ccccc31)Nc1ccc(Cl)cc1S2.[Cl-] | 6 |
| O=C(O)c1cn(C2CC2)c2c3c(c(F)cc2c1=O)Sc1ccccc1N3 | 0.75 (≈ 2.04 µM) |
| COc1ccc2c(n1)Sc1c3c(c4ccccc4c1=N2)=Nc1ccc(OC)nc1S3 | 144 (≈ 336 µM) |
| Cc1ccc2c(c1)Sc1c(F)cc3c(=O)c(C(=O)O)cn(C4CC4)c3c1N2 | 1.5 (≈ 3.92 µM) |

System: C32
Assay: Cytotoxicity against human C32 cells incubated for 72 hrs by WST1 dye based assay
Type: functional, cell-based
Conditions: C32, 72 h

| SMILES | IC50 [µg/mL] |
| --- | --- |
| c1cnc2c(c1)Nc1ncccc1S2 | 7.5 (≈ 37.3 µM) |
| CCN(CC)CCN1c2cccnc2Sc2cccnc21 | 6.6 (≈ 22 µM) |

Biological target: Lipoxygenase (Glycine max, UniProt Q39829)
Assay: Inhibition of soybean lipoxygenase using linoleic acid as substrate preincubated for 5 mins followed by substrate addition measuredf after 7 mins by solution A/B solution based assay
Conditions: not given

| SMILES | IC50 [nM] |
| --- | --- |
| CCN1CCN(c2nc(C)c3c(n2)Sc2ccccc2N3)CC1 | 40700 |
| CN1CCN(c2ncc3c(n2)Sc2ccccc2N3)CC1 | 87700 |
| Cc1nc(N2CCN(C)CC2)nc2c1Nc1ccccc1S2 | 21200 |

System: Enterococcus faecalis
Assay: Antibacterial activity against Enterococcus faecalis
Type: functional
Conditions: not given

| SMILES | MIC [µg/mL] |
| --- | --- |
| C[n+]1cc2c(c3ccccc31)Nc1ccccc1S2.[Cl-] | 6 |
| Cc1ccc2c(c1)Sc1c[n+](C)c3ccccc3c1N2.[Cl-] | 11 |
| C[n+]1cc2c(c3ccccc31)Nc1ccc(Cl)cc1S2.[Cl-] | 4 |
| C[n+]1cc2c(c3ccccc31)Nc1ccc(Br)cc1S2.[Cl-] | 9 |

Biological target: not listed separately
Assay: Inhibition of soybean 15-lipoxygenase
Design: species or system Glycine max
Conditions: not given

| SMILES | IC50 [nM] |
| --- | --- |
| c1ccc2c(c1)Nc1nnc(N3CCOCC3)cc1S2 | > 287000 |
| CN1CCN(c2cc3c(nn2)Nc2ccccc2S3)CC1 | > 287000 |
| c1ccc2c(c1)Nc1nnc(N3CCCCC3)cc1S2 | > 287000 |
| c1ccc2c(c1)Nc1nnc(N3CCCC3)cc1S2 | > 287000 |

Species on record: Mus musculus
Assay: Antioxidant activity in Swiss albino mouse assessed as GSH level per mg tissue
Type: functional
Conditions: not given

| SMILES | Activity [nM] |
| --- | --- |
| COc1cccc2c3c(c4nc5ccccc5c(=O)n4c12)Sc1cc(C)ccc1N3 | 6.8 |
| COc1ccc2c(c1)c1c(c3nc4ccccc4c(=O)n32)Sc2cccc(OC)c2N1 | 6.8 |
| COc1cccc2c1Nc1c(c3nc4ccccc4c(=O)n3c3c(OC)cccc13)S2 | 6.8 |

System: Staphylococcus aureus
Assay: Antibacterial activity against methicillin-resistant Staphylococcus aureus
Type: functional
Conditions: not given

| SMILES | MIC [µg/mL] |
| --- | --- |
| COc1ccc2c(c1)Sc1c(F)cc3c(=O)c(C(=O)O)cn(C4CC4)c3c1N2 | 25 (≈ 62.7 µM) |
| O=C(O)c1cn(C2CC2)c2c3c(c(F)cc2c1=O)Sc1cc(Cl)ccc1N3 | ≥ 100 |
| Cc1ccc2c(c1)Sc1c(F)cc3c(=O)c(C(=O)O)cn(C4CC4)c3c1N2 | 1.5 (≈ 3.92 µM) |

System: MCF7
Assay: Cytotoxicity against human MCF7 cells assessed as cell growth inhibition after 48 hrs by SRB assay
Type: functional, cell-based
Conditions: MCF7, 48 h

| SMILES | IC50 [nM] |
| --- | --- |
| CCN(CC)CCN1c2nc3ccccc3cc2Sc2cc3ccccc3nc21 | ≤ 1000 |
| CN(C)CCCN1c2nc3ccccc3cc2Sc2cc3ccccc3nc21 | ≤ 1000 |

System: Salmonella typhimurium
Assay: Antibacterial activity against Salmonella typhimurium
Type: functional, Salmonella enterica subsp. enterica serovar Typhimurium
Conditions: Salmonella enterica

| SMILES | MIC [µg/mL] |
| --- | --- |
| COc1ccc2c(c1)Sc1c(F)cc3c(=O)c(C(=O)O)cn(C4CC4)c3c1N2 | 6 (≈ 15.1 µM) |
| O=C(O)c1cn(C2CC2)c2c3c(c(F)cc2c1=O)Sc1ccccc1N3 | 6 (≈ 16.3 µM) |
| Cc1ccc2c(c1)Sc1c(F)cc3c(=O)c(C(=O)O)cn(C4CC4)c3c1N2 | 1.5 (≈ 3.92 µM) |

Biological target: Intercellular adhesion molecule 1 (Homo sapiens, UniProt P05362)
Assay: Inhibition of ICAM1 (unknown origin)
Conditions: not given

Chain of Intercellular adhesion molecule 1 (P05362 whole entry): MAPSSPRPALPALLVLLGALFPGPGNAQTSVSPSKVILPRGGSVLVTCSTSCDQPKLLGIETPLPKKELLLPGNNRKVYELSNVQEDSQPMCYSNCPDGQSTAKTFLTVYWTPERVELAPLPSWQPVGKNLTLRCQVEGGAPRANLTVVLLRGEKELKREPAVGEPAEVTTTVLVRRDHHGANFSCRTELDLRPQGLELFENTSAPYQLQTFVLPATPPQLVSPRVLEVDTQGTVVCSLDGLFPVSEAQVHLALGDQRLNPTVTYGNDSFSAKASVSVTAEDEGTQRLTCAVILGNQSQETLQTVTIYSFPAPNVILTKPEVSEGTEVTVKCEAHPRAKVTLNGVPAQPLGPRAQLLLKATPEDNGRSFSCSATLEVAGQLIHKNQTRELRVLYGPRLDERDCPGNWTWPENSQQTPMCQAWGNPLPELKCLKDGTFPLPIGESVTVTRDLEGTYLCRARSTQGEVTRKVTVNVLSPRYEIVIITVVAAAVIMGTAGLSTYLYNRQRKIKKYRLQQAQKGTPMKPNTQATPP

| SMILES | IC50 [nM] |
| --- | --- |
| O=C(O)CC1CC2(CCN(Cc3ccc4c(c3)Nc3nccnc3S4)CC2)C1 | 420 to 1000 |
| O=C(O)c1ccc(CC2CCN(Cc3ccc4c(c3)Nc3nccnc3S4)CC2)cc1 | 420 to 1000 |
| CS(=O)(=O)NCC1CCN(Cc2ccc3c(c2)Nc2nccnc2S3)CC1 | 270 to 1400 |
| O=S(=O)(NC1CCN(Cc2ccc3c(c2)Nc2nccnc2S3)CC1)N1CCOCC1 | 270 to 1400 |

System: not listed separately
Assay: Antioxidant activity assessed as DPPH radical scavenging activity
Type: functional
Conditions: dose or concentration not given here

| SMILES | inhibition [%] |
| --- | --- |
| COc1cccc2c3c(c4nc5ccccc5c(=O)n4c12)Sc1cc(C)ccc1N3 | 45.6 to 47.3 |
| COc1ccc2c(c1)c1c(c3nc4ccccc4c(=O)n32)Sc2cccc(OC)c2N1 | 45.6 to 47.3 |
| COc1cccc2c1Nc1c(c3nc4ccccc4c(=O)n3c3c(OC)cccc13)S2 | 45.6 to 47.3 |

System: HFF-1
Assay: Cytotoxicity against human HFF1 cells incubated for 72 hrs by WST1 dye based assay
Type: cell-based
Conditions: HFF-1, 72 h

| SMILES | IC50 [µg/mL] |
| --- | --- |
| c1cnc2c(c1)Nc1ncccc1S2 | ≥ 50 |
| CCN(CC)CCN1c2cccnc2Sc2cccnc21 | ≥ 50 |

System: Mus musculus
Assay: Anti-inflammatory activity in mouse IL-1-induced paw inflammation model assessed as inhibition of neutrophil infiltration at 10 mg/kg, po
Type: functional
Conditions: Mus musculus, po

| SMILES | inhibition in vivo at 10 mg/kg [%] |
| --- | --- |
| O=C(O)CC1CC2(CCN(Cc3ccc4c(c3)Nc3nccnc3S4)CC2)C1 | 88.8 |
| O=C(O)c1ccc(CC2CCN(Cc3ccc4c(c3)Nc3nccnc3S4)CC2)cc1 | 88 |

System: Bacillus cereus
Assay: Antibacterial activity against Bacillus cereus
Type: functional, organism-based
Conditions: not given

| SMILES | MIC [µg/mL] |
| --- | --- |
| Oc1ncnc2c1N=c1c(c3c(c4ccccc14)=Nc1ccccc1S3)O2 | 66.1 (≈ 178 µM) |
| O=C(O)c1cn(C2CC2)c2c3c(c(F)cc2c1=O)Sc1ccccc1N3 | 3 (≈ 8.14 µM) |
| Cc1ccc2c(c1)Sc1c(F)cc3c(=O)c(C(=O)O)cn(C4CC4)c3c1N2 | 1.5 (≈ 3.92 µM) |

Biological target: Cholinesterase (Equus caballus, UniProt P81908)
Assay: Inhibition of horse serum BChE
Conditions: not given

Chain of Cholinesterase (P81908 whole entry): as the sequence (P81908 whole entry) above

| SMILES | IC50 [nM] |
| --- | --- |
| CN1CCCCC1CCN1c2nc3ccccc3cc2Sc2cc3ccccc3nc21 (configuration not stated) | 11.8 |
| CSc1ccc2c(c1)Sc1cc3ccccc3nc1N2CCC1CCCCN1C (configuration not stated) | 24.4 |
| O=C(NCCCl)NCCCN1c2nc3ccccc3cc2Sc2cc3ccccc3nc21 | 2900 |
| CN1CCCCC1CCN1c2ccc(Cl)cc2Sc2cc3ccccc3nc21 (configuration not stated) | 122 |

System: HOP-92
Assay: Cytotoxicity against human HOP92 cells assessed as cell growth inhibition after 48 hrs by SRB assay
Type: functional, cell-based
Conditions: HOP-92, 48 h

| SMILES | IC50 [nM] |
| --- | --- |
| CCN(CC)CCN1c2nc3ccccc3cc2Sc2cc3ccccc3nc21 | ≤ 1000 |
| CN(C)CCCN1c2nc3ccccc3cc2Sc2cc3ccccc3nc21 | ≤ 1000 |

System: MCF7
Assay: Cytotoxicity against human MCF7 cells incubated for 72 hrs by WST1 dye based assay
Type: functional, cell-based
Conditions: MCF7, 72 h

| SMILES | IC50 [µg/mL] |
| --- | --- |
| c1cnc2c(c1)Nc1ncccc1S2 | 4.8 (≈ 23.9 µM) |

System: Mus musculus
Assay: Anti-inflammatory activity in IL1-induced paw inflammation Balb/c mouse model assessed as inhibition of neutrophil migration at 10 mg/kg, po, pretreated for 30 mins followed by IL1 challenge measured after 2 hrs by spectrophotometric method
Type: functional
Conditions: not given

| SMILES | inhibition in vivo at 10 mg/kg [%] |
| --- | --- |
| CS(=O)(=O)NCC1CCN(Cc2ccc3c(c2)Nc2nccnc2S3)CC1 | 77.6 |
| O=S(=O)(NC1CCN(Cc2ccc3c(c2)Nc2nccnc2S3)CC1)N1CCOCC1 | 66.1 |

System: Candida albicans
Assay: microbe, parasite or virus in culture
Conditions: not given

| SMILES | MIC [µg/mL] |
| --- | --- |
| Nc1nc(O)c2c(n1)N=c1c(c3c(c4ccccc14)=Nc1ccccc1S3)S2 | 91.2 (≈ 227 µM) |
| COc1ccc2c(n1)Sc1c3c(c4ccccc4c1=N2)=Nc1ccc(OC)nc1S3 | 72.4 (≈ 168 µM) |

System: Aspergillus niger
Assay: Antifungal activity against Aspergillus niger
Type: functional
Conditions: not given

| SMILES | MIC [µg/mL] |
| --- | --- |
| Oc1ncnc2c1N=c1c(c3c(c4ccccc14)=Nc1ccccc1S3)O2 | 79.4 (≈ 214 µM) |
